Test results published in patent US12636312B2, “Gold clusters (AuCs), composition and method for treatment of liver cirrhosis” (Wuhan Vast Conduct Science Foundation CO., LTD., priority 2020, dated 2026).

Legend:
cirrhotic model mice [1] = test: Serum biochemical testing (ALT, AST, TBil, MAO, ALB) in CCl4-induced liver cirrhosis model mice, Embodiment 3; type: in vivo
Text: (§1) 120 SPF male C57BL/6N mice, 6-8 weeks old and 16-20 g body weight, were purchased from Beijing Huafukang Experimental Animal Technology Co., Ltd. (production license number: SOCK (Jing) 2019-0008). According to body weight, they were randomly divided into 12 groups (n=10): blank control group, model group, positive control group, A-01 low dose group, A-01 high dose group, A-02 low dose group, A-02 high dose group, B-01 low-dose group, B-01 high-dose group, B-02 low-dose group, B-02 high-dose group, and C high-dose group.
(§2) Except for the blank control group, liver cirrhosis model of mice in other groups was prepared by the method of carbon tetrachloride (CCl4)-induction treatment. The modeling protocol was as follows: (1) Each mouse was intraperitoneally injected with 10% CCl4 (diluted with olive oil) at 7 μL/g body weight, twice a week for a total of 8 weeks; mice of the blank control group were injected intraperitoneally with the same amount of olive oil solvent. (2) from the 6th week, two mice were selected and killed 48 hours after the last injection every week. The appearance of the liver was observed. After the appearance was in line with the characteristics of cirrhosis (the 8th week), the liver tissue was fixed with formalin. HE staining and Masson staining were used to evaluate the model of cirrhosis.
After the successful modeling, the mice in the positive control group were given intragastrically 25 mg/kg sorafenib; the mice in the low or high dose groups of A-01, A-02, B-01 and B-02 were given by intraperitoneal injection at 2.5 or 10 mg/kg respectively of the corresponding test material; the mice in the C high dose group were given by intraperitoneal injection at a dose of 40 mg/kg of C; and the mice in the blank control group and the model group were given intraperitoneally physiological saline at 10 mL/kg. The administration was once a day for 20 consecutive days.
After the administration was completed, blood was collected from mouse orbit, and sera were obtained for biochemical testing of albumin (ALbumin, ALB), total bilirubin (TBil), alanine Alanine aminotransferase (ALT), aspartate aminotransferase (AST) and monoamine oxidase (MAO) using Zhongsheng Beikong Kit and biochemical analyzer (Siemens). The detection method was performed in strict accordance with the kit instructions.

cirrhotic model mice [2] = test: Pathological examination of liver (HE staining, Masson staining) in CCl4-induced liver cirrhosis model mice, Embodiment 3; type: in vivo, C57BL/6N mice; conditions: 25 mg/kg intragastrically 20 days
Text: as §1
as §2, with “cirrhosis. […]” for “cirrhosis.”

[3] = 25 mg/kg intragastrically 20 days
[4] = 25 mg/kg intragastrically 20 days, listed as positive control
[5] = 25 mg/kg intragastrically 20 days, listed as positive control drug

CNC(=O)c1cc(Oc2ccc(NC(=O)Nc3ccc(Cl)c(C(F)(F)F)c3)cc2)ccn1 [sorafenib, Sorafenib]
serum ALT level versus model group (cirrhotic model mice [1]; [3]): significantly reduced
serum AST level versus model group (cirrhotic model mice [1]; [3]): significantly reduced
serum TBIL level versus model group (cirrhotic model mice [1]; [3]): significantly reduced
serum ALB level versus model group (cirrhotic model mice [1]; [4]): did not significantly affect
serum MAO activity versus model group (cirrhotic model mice [1]; [4]): did not decrease
serum ALB level versus model group (cirrhotic model mice [1]; [5]): no significant effect
serum MAO activity versus model group (cirrhotic model mice [1]; [5]): no effect
serum MAO activity (cirrhotic model mice [1]; 25 mg/kg intragastrically 20 days, model group 21.5±0.7): 21.3±2.1 U/L
serum AST activity (cirrhotic model mice [1]; 25 mg/kg intragastrically 20 days, model group 192.0±11.3): 165.5±11.6 U/L
serum ALT activity (cirrhotic model mice [1]; 25 mg/kg intragastrically once a day for 20 days, model group 188.5±4.9): 42.8±5.4 U/L
HE staining: liver damages versus model group (cirrhotic model mice [2]): significant reduction of liver damages
